Laboratory results reported in PubChem BioAssay AID2060883 (Molecular Pharmacology Branch, DTP, NCI, 2025).
Where “and” joins values, the source holds several entries; their conditions need not be identical. Equal values may be shown once.

Tested on: 843782-103-R-J1-PDC complex spheroid viability
Experiment: Anticancer human tumor 843782-103-R-J1-PDC patient-derived lung adenocarcinoma cell line growth inhibition [RAS]
Details: for viability, T/C: stronger effect = lower value
Excerpt: RAS pathway inhibitors in Combinations in Complex Spheroids
A high-throughput screen of multi-cell type tumor spheroids was designed to identify active combinations of RAS pathway inhibitors and targeted small molecules. Complex spheroids include a stromal component modeled by human endothelial cells (HUVEC) and fibroblasts modeled by human mesenchymal stem cells (MSCs). The concentration ranges selected for each drug and investigational agent were based upon clinically achievable concentrations if the clinical Cmax of the agent was known.
Compounds. The drugs and investigational agents: abemaciclib (NSC768073), cobimetinib (NSC768068), divarasib (GDC6063, NSC841802), docetaxel (NSC628503), GDC-1971 (RLY-1971, NSC841576), gemcitabine (NSC613327), inavolisib (NSC800729), ipatasertib (NSC767898), KB-0742 (NSC834161), MRTX-1133 (NSC836407), osimertinib (NSC779217), RMC-4630 (NSC839698), RMC-6236 (NSC851965), RMC-6291 (NSC852671), Ro-3306 (NSC812927), sapanisertib (NSC764658), SN-38 (NSC673596), staurosporine (NSC755774), SY5609 (NSC837396), and tovorafenib (DAY101, NSC766906), were obtained from the National Cancer Institute (NCI) Developmental Therapeutics Program Chemical Repository. The FDA-approved anticancer drug set is available from the NCI Developmental Therapeutics Program. […] The stock solutions were prepared in dimethyl sulfoxide (DMSO, Sigma-Aldrich, St. Louis, MO, cat. D2650) at 800-fold the tested concentration and stored at -70 degrees C prior to their use. All drugs and investigational agents were tested over a range starting from a high concentration at or near the clinical Cmax and decreasing in half-log increments. If the clinical Cmax for an agent had not been determined, the highest concentration tested was 10 microM.
Cell Culture. All cells were maintained in an incubator at 37 degrees C and 5% CO2 with 95% humidity. The PDC lines were cultured according to standard operating procedures established by the NCI PDMR. All PDCs were thawed and cultured in Matrigel-coated flasks prepared with a working solution of 1X Ham's F-12 nutrient mix, without supplementation (Invitrogen, Waltham, MA, cat. 11765054), 100 U/mL penicillin-streptomycin (Invitrogen, cat. 15140122), and 2.5% Matrigel (Corning Inc., Corning, NY, cat. 354248) for the first three passages. The 362531-283-R-J2-PDC and 782815-120-R-J1-PDC lines were cultured in 6C/Colon 1B media, which includes advanced DMEM/F-12 (Thermo Fisher Scientific, cat. 12634028), 10 mM HEPES (Thermo Fisher Scientific, cat. 15630080), 1X GlutaMAX supplement (Thermo Fisher Scientific, cat. 35050061), 0.1 mg/mL primocin (InvivoGen, San Diego, CA, cat. ant-pm-2), 10% defined fetal bovine serum, heat inactivated (HyClone Laboratories Inc., Logan, UT, cat. SH30070.03HI), 50% L-WRN conditioned media (ATCC, cat. CRL-3276), 1.25 mM N-Acetyl-L-cysteine (Sigma-Aldrich, cat. A9165), 10 mM nicotinamide (Sigma-Aldrich, cat. N0636), 1X B-27 supplement (Thermo Fisher Scientific, cat. 17504044), 1X N-2 supplement (Thermo Fisher Scientific, cat. 17502048), 50 ng/mL human EGF (Thermo Fisher Scientific, cat. PHG0311), and 10 microM Y-27632 dihydrochloride (Tocris Bioscience, cat. 1254). The K12877-001-R-J1-PDC line was cultured in 6I media, which includes all 6C/Colon 1B media plus 10 ng/mL human FGF-10 (PeproTech, cat. 100-26), 1 ng/mL human FGF-2 (PeproTech, cat. 100-18B), 1 µM prostaglandin E2 (Tocris Bioscience, cat. 2296), […] hydrocortisone (Sigma-Aldrich, cat. H4001), and […] bovine insulin (Sigma-Aldrich, cat. I6634). The K86415-001-R-J1-PDC line was cultured in 6D media, which includes all 6C/Colon 1B media components minus the L-WRN conditioned media. The 485176-168-R4-J1-PDC was cultured in PANC media, which includes all 6C/Colon 1B media plus 100 ng/mL human FGF-10 (PeproTech, cat. 100-26), 500 nM SB-431542 (Selleckchem, cat. S1067), and 10 nM gastrin (Tocris Bioscience, cat. 3006). […]

[1] = curve of first compound, second compound 0.000949 µM
[2] = curve of first compound, second compound 0.003 µM
[3] = curve of first compound, second compound 0.00949 µM
[4] = curve of first compound, second compound 0.03 µM
[5] = curve of first compound, second compound 0.0949 µM
[6] = curve of first compound, second compound 0.3 µM
[7] = second compound 0.000949 µM, first compound 0.0316 µM
[8] = second compound 0.000949 µM, first compound 0.1 µM
[9] = second compound 0.000949 µM, first compound 0.316 µM
[10] = second compound 0.000949 µM, first compound 1 µM
[11] = second compound 0.003 µM, first compound 0.0316 µM
[12] = second compound 0.003 µM, first compound 0.1 µM
[13] = second compound 0.003 µM, first compound 0.316 µM
[14] = second compound 0.003 µM, first compound 1 µM
[15] = second compound 0.00949 µM, first compound 0.0316 µM
[16] = second compound 0.00949 µM, first compound 0.1 µM
[17] = second compound 0.00949 µM, first compound 0.316 µM
[18] = second compound 0.00949 µM, first compound 1 µM
[19] = second compound 0.03 µM, first compound 0.0316 µM
[20] = second compound 0.03 µM, first compound 0.1 µM
[21] = second compound 0.03 µM, first compound 0.316 µM
[22] = second compound 0.03 µM, first compound 1 µM
[23] = second compound 0.0949 µM, first compound 0.0316 µM
[24] = second compound 0.0949 µM, first compound 0.1 µM
[25] = second compound 0.0949 µM, first compound 0.316 µM
[26] = second compound 0.0949 µM, first compound 1 µM
[27] = second compound 0.3 µM, first compound 0.0316 µM
[28] = second compound 0.3 µM, first compound 0.1 µM
[29] = second compound 0.3 µM, first compound 0.316 µM
[30] = second compound 0.3 µM, first compound 1 µM
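Also: viability read after seven days of compound exposure.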

O=C(c1ccc(F)c(F)c1Nc1ccc(I)cc1F)N1CC(O)([C@@H]2CCCCN2)C1 + CCn1c(-c2cc(N3CCN(C)CC3)cnc2C(C)OC)c2c3cc(ccc31)-c1csc(n1)CC(NC(=O)C1CC1C)C(=O)N1CCCC(N1)C(=O)OCC(C)(C)C2 was tested, and the IC50 [1] was 18 nM, the IC50 [2] was 4.01 nM and the IC50 [3] was less than 3.16 nM. For the same compound, the IC50 [4] was less than 3.16 nM, the IC50 [5] was less than 3.16 nM and the IC50 [6] was less than 3.16 nM. The viability, T/C (second compound 0.000949 µM, first compound 0.00316 µM) was 68.7%, the viability, T/C (second compound 0.000949 µM, first compound 0.01 µM) was 63.4% and the viability, T/C [7] was 36.7%. It also gave a viability, T/C [8] of 26.3%, a viability, T/C [9] of 19% and a viability, T/C [10] of 11%. The viability, T/C (second compound 0.003 µM, first compound 0.00316 µM) was 53%, the viability, T/C (second compound 0.003 µM, first compound 0.01 µM) was 37.5% and the viability, T/C [11] was 31.5%. It also gave a viability, T/C [12] of 17.7%, a viability, T/C [13] of 11.7% and a viability, T/C [14] of 10.3%. The viability, T/C (second compound 0.00949 µM, first compound 0.00316 µM) was 30%, the viability, T/C (second compound 0.00949 µM, first compound 0.01 µM) was 19.3% and the viability, T/C [15] was 16.9%. For the same compound, the viability, T/C [16] was 10.9%, the viability, T/C [17] was 9.55% and the viability, T/C [18] was 7.11%. It also gave a viability, T/C (second compound 0.03 µM, first compound 0.00316 µM) of 14.8%, a viability, T/C (second compound 0.03 µM, first compound 0.01 µM) of 15.3% and a viability, T/C [19] of 10.1%. For the same compound, the viability, T/C [20] was 8.81%, the viability, T/C [21] was 8.18% and the viability, T/C [22] was 9.08%. It also gave a viability, T/C (second compound 0.0949 µM, first compound 0.00316 µM) of 13%, a viability, T/C (second compound 0.0949 µM, first compound 0.01 µM) of 10.8% and a viability, T/C [23] of 9.11%. For the same compound, the viability, T/C [24] was 7.24%, the viability, T/C [25] was 7.61% and the viability, T/C [26] was 8.33%. It also gave a viability, T/C (second compound 0.3 µM, first compound 0.00316 µM) of 10.4%, a viability, T/C (second compound 0.3 µM, first compound 0.01 µM) of 8.56% and a viability, T/C [27] of 7.38%. For the same compound, the viability, T/C [28] was 6.95%, the viability, T/C [29] was 8.88% and the viability, T/C [30] was 5.35%.
Cc1nc(N2CCC3(CC2)COC(C)C3N)c(CO)nc1Sc1ccnc(N)c1Cl (configuration not stated) + CCn1c(-c2cccnc2C(C)OC)c2c3cc(ccc31)N1CCOC(CC(NC(=O)C(C(C)C)N(C)C(=O)C3(F)CCN(C(=O)C#CC(C)(C)N(C)C)CC3)C(=O)N3CCCC(N3)C(=O)OCC(C)(C)C2)C1 was tested, and the IC50 [1] was 55 nM, the IC50 [2] was 50.4 nM and the IC50 [3] was 53.8 nM. The IC50 [4] was 44.4 nM, the IC50 [5] was 45.3 nM and the IC50 [6] was 36.9 nM. The viability, T/C [7] was 57.4%, the viability, T/C [8] was 43.4% and the viability, T/C [9] was 31.3%. The viability, T/C [10] was 21%, the viability, T/C (second compound 0.000949 µM, first compound 3.16 µM) was 20.8% and the viability, T/C (second compound 0.000949 µM, first compound 10 µM) was 17.4%. For the same compound, the viability, T/C [11] was 55.1%, the viability, T/C [12] was 42% and the viability, T/C [13] was 31.6%. For the same compound, the viability, T/C [14] was 22.2%, the viability, T/C (second compound 0.003 µM, first compound 3.16 µM) was 17.3% and the viability, T/C (second compound 0.003 µM, first compound 10 µM) was 20.6%. It also gave a viability, T/C [15] of 55.1%, a viability, T/C [16] of 44.2% and a viability, T/C [17] of 28.6%. For the same compound, the viability, T/C [18] was 21.3%, the viability, T/C (second compound 0.00949 µM, first compound 3.16 µM) was 23.1% and the viability, T/C (second compound 0.00949 µM, first compound 10 µM) was 16.4%. For the same compound, the viability, T/C [19] was 53.8%, the viability, T/C [20] was 40.2% and the viability, T/C [21] was 34.5%. It also gave a viability, T/C [22] of 27.6%, a viability, T/C (second compound 0.03 µM, first compound 3.16 µM) of 18.6% and a viability, T/C (second compound 0.03 µM, first compound 10 µM) of 17.8%. The viability, T/C [23] was 55.4%, the viability, T/C [24] was 37% and the viability, T/C [25] was 34.3%. For the same compound, the viability, T/C [26] was 24.1%, the viability, T/C (second compound 0.0949 µM, first compound 3.16 µM) was 19.4% and the viability, T/C (second compound 0.0949 µM, first compound 10 µM) was 23.6%. For the same compound, the viability, T/C [27] was 51.3%, the viability, T/C [28] was 42.1% and the viability, T/C [29] was 31.6%. The viability, T/C [30] was 22.6%, the viability, T/C (second compound 0.3 µM, first compound 3.16 µM) was 20.8% and the viability, T/C (second compound 0.3 µM, first compound 10 µM) was 21.4%.
In the case of CCC(CC)c1cc(NC2CCC(N)C2)n2nccc2n1 (configuration not stated), the viability, T/C (compound 0.0316 µM) is reported as 114% and 109% and 101% (2×), the viability, T/C (compound 0.1 µM) is reported as 107% [middle of 4 runs] and the viability, T/C (compound 0.316 µM) is reported as 101% [middle of 4 runs]. For the same compound, the viability, T/C (compound 3.16 µM) was 2.11% [middle of 4 runs], the viability, T/C (compound 10 µM) was 0.82% [middle of 4 runs] and the IC50 (curve of compound) was 1.78 µM [middle of 4 runs].
In the case of CC(C)n1nc(-c2ccc3oc(N)nc3c2)c2c(N)ncnc21, the viability, T/C (compound 0.000316 µM) is reported as 108% [middle of 4 runs], the viability, T/C (compound 0.001 µM) is reported as 94% [middle of 4 runs] and the viability, T/C (compound 0.00316 µM) is reported as 91.6% [middle of 4 runs]. The viability, T/C (compound 0.01 µM) was 72.3% [middle of 4 runs], the viability, T/C (compound 0.0316 µM) was 48.1% [middle of 4 runs] and the viability, T/C (compound 0.1 µM) was 28.8% [middle of 4 runs]. The IC50 (curve of compound) was 31.2 nM [middle of 4 runs].
